Compound: C[C@]1(c2nc3c(C(N)=O)cccc3[nH]2)CCCN1 [Veliparib] + C[C@@H](Oc1cc(-c2cnn(C3CCNCC3)c2)cnc1N)c1c(Cl)ccc(F)c1Cl [Crizotinib] (partner 1 µM)
Test: relative viability (nuclei count vs DMSO), 5 days (fraction); higher = more cells survive
Details: first compound 2 µM
Outline: (§1)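 Lung cancer cell lines in 1536-well plates got either a single drug or a fixed anchor-drug dose together with five library-drug doses (not always all listed) in √10 steps, by pin tool, on the day after seeding. Nuclei were counted after 5 days, and relative viability is the treated-to-vehicle ratio of nuclei counts. Values are medians of duplicate plates.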

Cell Line | relative viability
NCI-H1299 | 0.948
NCI-H1650 | 0.919
EPLC-272H | 0.904
LK-2 | 0.183
PC-14 | 0.766
LXF-289 | 0.83
A549 | 0.891
NCI-H1563 | 0.808
NCI-H2228 | 0.475
NCI-H1703 | 0.75
Calu-6 | 0.796
NCI-H2170 | 1.14
SK-MES-1 | 0.956
CAL-12T | 0.645
NCI-H1944 | 0.976

Compound: COC1=CC=C(C=C1)CN2C=CC3=C2C=C(C=C3)C(=O)NO + CC(C)C[C@H](NC(=O)[C@H](Cc1ccccc1)NC(=O)c1cnccn1)B(O)O [Bortezomib] (partner 0.002 µM)
Test: as above
Details: first compound 0.08 µM
Outline: as §1

Cell Line | relative viability
NCI-H1975 | 0.422
H3255 | 0.73
NCI-H2023 | 0.728
NCI-H2405 | 0.546
NCI-H1437 | 0.38
NCI-H596 | 1.04
HCC-15 | 0.854
NCI-H460 | 1.02
EMC-BAC-2 | 0.972
IA-LM | 0.857
NCI-H2009 | 0.771
NCI-H520 | 0.218
HCC-78 | 0.474
EKVX | 1.03
EBC-1 | 0.574
NCI-H1299 | 0.994
NCI-H1650 | 0.17
EPLC-272H | 0.925
PC-14 | 0.706
LXF-289 | 0.699
NCI-H1563 | 0.788
NCI-H2228 | 1.22
NCI-H1703 | 0.322
Calu-6 | 1.07
CAL-12T | 0.987

Same assay, conditions: first compound 0.253 µM

Cell Line | relative viability
LU99A | 1.13
NCI-H1975 | 0.382
H3255 | 0.623
NCI-H2023 | 1.05
NCI-H2405 | 0.924
SK-LU-1 | 1.08
NCI-H1734 | 1.03
NCI-H1437 | 0.483
ABC-1 | 0.274
HCC-15 | 1.09
NCI-H460 | 0.984
EMC-BAC-2 | 1.13
IA-LM | 0.69
NCI-H2009 | 0.967
COR-L 105 | 0.741
NCI-H520 | 0.722
HCC-78 | 0.49
EKVX | 0.762
EBC-1 | 0.496
NCI-H1299 | 1.06
NCI-H1650 | 0.174
EPLC-272H | 0.953
PC-14 | 0.726
LXF-289 | 1
NCI-H1563 | 0.916
NCI-H2228 | 1.03
NCI-H1703 | 0.403
Calu-6 | 0.979

Same assay, conditions: first compound 0.8 µM

Cell Line | relative viability
LU99A | 1.14
NCI-H1975 | 0.408
H3255 | 0.733
NCI-H2023 | 0.944
NCI-H2405 | 1.02
SK-LU-1 | 1.58
NCI-H1734 | 0.91
NCI-H1437 | 0.527
ABC-1 | 0.296
NCI-H596 | 0.943
HCC-15 | 1.13
NCI-H460 | 1.04
EMC-BAC-2 | 1.18
IA-LM | 0.942
NCI-H2009 | 0.958
COR-L 105 | 0.654
NCI-H520 | 0.64
HCC-78 | 0.437
EKVX | 1.16
EBC-1 | 0.532
NCI-H1299 | 1.04
NCI-H1650 | 0.208
EPLC-272H | 1.16
PC-14 | 0.954
LXF-289 | 0.956
NCI-H1563 | 0.95
NCI-H2228 | 0.93
NCI-H1703 | 0.327
Calu-6 | 0.968
CAL-12T | 1.06

Same assay, conditions: first compound 2.53 µM

Cell Line | relative viability
LU99A | 1.06
NCI-H1975 | 0.455
H3255 | 0.739
NCI-H2023 | 1.03
NCI-H2405 | 1.01
SK-LU-1 | 1.14
NCI-H1734 | 0.898
NCI-H1437 | 0.581
ABC-1 | 0.325
NCI-H596 | 1.07
HCC-15 | 1.02
NCI-H460 | 1.14
EMC-BAC-2 | 1.07
IA-LM | 0.769
NCI-H2009 | 0.975
COR-L 105 | 0.625
NCI-H520 | 0.751
HCC-78 | 0.543
EKVX | 1.08
EBC-1 | 0.54
NCI-H1299 | 1.03
NCI-H1650 | 0.211
EPLC-272H | 0.861
PC-14 | 0.956
LXF-289 | 0.964
NCI-H1563 | 0.839
NCI-H2228 | 1.18
NCI-H1703 | 0.32
Calu-6 | 0.953
CAL-12T | 1.06

Same assay, conditions: first compound 8 µM

Cell Line | relative viability
LU99A | 0.938
NCI-H1975 | 0.363
H3255 | 0.894
NCI-H2023 | 0.878
NCI-H2405 | 0.961
SK-LU-1 | 0.817
NCI-H1734 | 0.725
NCI-H1437 | 0.393
ABC-1 | 0.318
NCI-H596 | 1.02
HCC-15 | 0.998
NCI-H460 | 1.01
EMC-BAC-2 | 0.944
IA-LM | 0.726
NCI-H2009 | 0.84
COR-L 105 | 0.277
NCI-H520 | 0.525
HCC-78 | 0.51
EKVX | 1.21
EBC-1 | 0.44
NCI-H1299 | 1.03
NCI-H1650 | 0.195
EPLC-272H | 0.855
PC-14 | 0.937
LXF-289 | 0.931
NCI-H1563 | 0.69
NCI-H2228 | 0.863
NCI-H1703 | 0.26
Calu-6 | 0.871
CAL-12T | 0.862
